“Also recorded” adds a separate entry of the source.
Key:
U373 cells = assay: Determination of cell adhesion (cell detachment assay with Methyl violet); type: cell-based, human; conditions: for effect on cell adhesion; additives: effect on the Octenisept® induced reduction: U373, 1 hour, Octenisept® alone or 1:1 with additive 5%, 5 μl to 100 μl medium, FIG. 3
Protocol: The humane glioblastoma cell line U373 was cultured in Dulbecco's Modified Eagle Medium (DMEM) supplemented with 10% PCS (Gibco™), 2 mM glutamine (PPA) and 100 U/ml penicillin/streptomycin (PAA) at 37° and 5% CO2. The cells were cultivated in monolayer and passaged at 80% confluence. Before carrying out the cell adhesion experiments the cells were transferred onto 96-well plates and brought to confluence.
Cell adhesion was carried out as described in detail in the quotation (Uchide, N. and Toyoda H., (2007) J Immunol Methods, 328 (1-2): 215-9). U373 cells were incubated in 96-well plates with Octenisept® (final concentration 5% (v/v) Octenisept®, this equates 0.005% octenidine dihydrochloride) alone or with the specified additives (5% v/v) for 1 hour in glucose-free Leibovitz medium. After removing the supernatant the standardized washing procedure was executed 3 times after which PBS was added with a motor-controlled pipet which led to the detachment of non-adhesive cells. Afterward only those cells whose matrix had formed a solid connection were fixed with glutaraldehyde and after removal of the glutaraldehyde stained with Methyl violet. The precipitated stain was dissolved with an SDS buffer and the extinction was measured at 550 nm in an ELISA plate reader.
It was now examined whether this additive ensures effects which can contribute to the improvement of wound healing. U373 cells were incubated for 1 hour in Leibovitz medium with Octenisept® alone or with additives (1:1 with glucose 5% or NaCl 0.9%). In each case 5 μl of the respective solution was added to 100 μl of medium. After washing and staining of the adherent cells with crystal violet the extinction was measured at 550 nm (FIG. 2a). The extinction of the controls was set to 1. Statistical significances were determined with Bonferroni's Multiple Comparison Test (**: p<0.01, ***<0.001).
Polyalcohols form a broad compound class and it was therefore examined whether single subgroups have different effects in the adhesion test. U373 cells were incubated in Leibovitz medium with 5 μl additive to 100 μl medium in each case for 1 hour with Octenisept® alone (−) or with additives (1:1 with polyalcohol 5%, glucose, 2-deoxyglucose (2-deoxyG.), lactose, saccharose, fructose, glucuronic acid, polyethylene glycol (PEG), chondroitin-4-sulfate (ch.4-s.), chondroitin-6-sulfate (ch.-6-s.) dermatan sulfate (dermatan-s.) or dextran sulfate (dextran-s.)). After washing and staining of the adherent cells with Methyl violet the extinction was measured at 550 nm. (Bars represent the mean value±SD of two independent experiments (measured in triplicates)). The extinction of the controls was set to 1. Statistical significances were determined with Bonferroni's Multiple Comparison Test (**: p<0.01, ***<0.001).
U373 cells were incubated for one hour with Octenisept® (1:20 in medium) alone (G0) or with Octenisept® and different volumes of a 5% glucose solution (resulting final dilution 1:200-1:2 in Leibovitz medium).

[1] = Precipitation assay of Octenisept® with NaCl or carbohydrates; type: physicochemical; conditions: equal parts Octenisept® and diluent (5%), 4° C.
Protocol: The stability of the solubility of the components of Octenisept® in NaCl solution as an indicator for their interaction was determined through the analysis of the precipitates. After the co-incubation of Octenisept® with equal parts of 0.9% w/v NaCl or 5% carbohydrates in sterile aqua bidest for 3, 12, 24 and 72 hours at 4° C. the solutions were centrifuged at 2500 rpm for 5 minutes and the precipitate, if existing, was analyzed with the Zeiss inverted microscope with a digital camera with the METAVIEW micro-photography documentation system.

[2] = concentration series with glucose, FIG. 4

Molecule	effect on cell adhesion; additives: effect on the Octenisept® induced reduction (U373 cells)	further results
OC[C@H]1O[C@@H](O[C@H]2[C@H](O)[C@@H](O)C(O)O[C@@H]2CO)[C@H](O)[C@@H](O)[C@H]1O (some centres unmarked) [lactose]	improved	
O=C(CO)[C@@H](O)[C@H](O)[C@H](O)CO [fructose]	improved	
dermatan sulfate	significantly reduced the adhesion to under the values of NaCl	sediment / crystals / turbidity of Octenisept® mixed with diluent [1]: quick micro-crystalline or colloidal turbidity
heparan sulfate		sediment / crystals / turbidity of Octenisept® mixed with diluent [1]: quick micro-crystalline or colloidal turbidity
chondroitin-4-sulfate	significantly reduced the adhesion to under the values of NaCl	
O=C[C@H](O)[C@@H](O)[C@H](O)[C@H](O)C(=O)O [glucuronic acid]	improved	effect on cell adhesion; additives: effect on the Octenisept® induced reduction (U373 cells; listed as Glucuronic acid): positive effect
O=C[C@H](O)[C@@H](O)[C@H](O)[C@H](O)CO [glucose]	improved	effect of glucose addition on Octenisept® reduced cell adherence (U373 cells; 5% glucose solution, final dilution 1:200 or 1:100, FIG. 4): tendentially improved; optimal glucose addition, final concentration (U373 cells; [2]): 0.1%; optimal glucose addition, in the stock solution (U373 cells; [2]): 2%; optimal absolute glucose in the Octenisept solution (U373 cells; corresponds to dilution 1:20 of 5% glucose): 0.25%
OC[C@H]1O[C@@](CO)(O[C@H]2O[C@H](CO)[C@@H](O)[C@H](O)[C@H]2O)[C@@H](O)[C@@H]1O [saccharose]	improved; also recorded: without impairing the effect	
O=CC[C@@H](O)[C@H](O)[C@H](O)CO [2-deoxyglucose]	improved	
chondroitin-6-sulfate	significantly reduced the adhesion to under the values of NaCl	
polyethylene glycol	improved	effect on cell adhesion; additives: effect on the Octenisept® induced reduction (U373 cells; listed as PEG): slight reduction of the positive effect
dextran sulfate	significantly reduced the adhesion to under the values of NaCl	
chondroitin sulfate		sediment / crystals / turbidity of Octenisept® mixed with diluent [1]: quick micro-crystalline or colloidal turbidity

— patent US8940324B2, “Octenidine composition” (Artan Holding AG, priority 2008, dated 2015)
